This note sets out measurements from patent US9617256B2 (priority 2007, dated 2017).

Test [1] concerns AECO001 (ATCC25922). Kind of test: MIC broth microdilution, AECO001. The test is classed as cell-based, E. coli. The following applies: for MIC: Escherichia coli. The essentials: (§1)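 MICs come from broth microdilution in cation-adjusted Mueller-Hinton broth, final inoculum 3×10^5–7×10^5 CFU/mL, 18-24 hours at 35° C. Levofloxacin and QC strains served as assay controls.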
On the technique in general: Broth dilution looks for growth in wells or tubes with falling amounts of substance.

The test system of test [2] is AECO063 (ATCC25922 bearing an acrAB mutation). The test can be described thus: microbe, parasite or virus in culture. Type of test: cell-based, E. coli. The following applies: Escherichia coli, ATCC25922, read-out: MIC AECO063. In outline: as §1
The test system of test [3] is APAE001 (ATCC27853). The test can be described thus: MIC broth microdilution, APAE001. Type of test: cell-based, P. aeruginosa. Particulars: Pseudomonas aeruginosa, ATCC27853, read-out: MIC APAE001, APAE001 (ATCC27853). In outline:
as §1

The subject of test [4] is APAE006 (strain of P. aeruginosa in which all efflux pumps are inactivated). The test can be described thus: microbe, parasite or virus in culture. The test is classed as cell-based. Particulars: Pseudomonas aeruginosa, read-out: MIC APAE006, APAE006, all efflux pumps inactivated. In outline: (§2)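 (ambient air) in cation-adjusted MHB; inoculum from 0.5 McFarland suspensions, final 3×10^5–7×10^5 CFU/mL; 2-fold serial drug dilutions per CLSI. APAE006: P. aeruginosa with all efflux pumps inactivated.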

In test [5] the test system is APAE006 in the presence of 8 micrograms per milliliter of polymyxin B nonapeptide. Type of test: cell-based, P. aeruginosa. Particulars: APAE006 with 8 micrograms per milliliter polymyxin B nonapeptide. The essentials: as §2
In test [6] the test system is AABA1060 (clinical isolate of Acinetobacter baumannii). Kind of test: MIC broth microdilution, AABA1060. Type of test: cell-based. The following applies: Acinetobacter baumannii, read-out: MIC AABA1060. In outline: as §1
Test [7] concerns ASAU001 (laboratory strain of S. aureus, ATCC29213). Kind of test: MIC broth microdilution, ASAU001. Particulars: Staphylococcus aureus, ATCC29213, read-out: MIC ASAU001. The test is classed as cell-based. The essentials:
as §1

Setting [8] is: ATCC25922, read-out: MIC AECO001.
[9] abbreviates: ATCC25922, read-out: MIC AECO001 HSA AGP.

Molecules are shown by their SMILES. Values after ≈ are worked out from the molar mass of the structure shown. Where two headings read alike, the source gives them in different places.

Turning to `C[C@@H](NC(=O)CNC1CC1)[C@H](NC(=O)c1ccc(C#Cc2ccccc2)cc1)C(=O)NO` [Example 132-2], the MIC is < 2 µg/mL in test [1] (setting [8]); 2 to 16 µg/mL (≈ 4.6 to 36.8 µM) in test [1] (setting [9]); < 2 µg/mL in test [2]; 2 to 16 µg/mL (≈ 4.6 to 36.8 µM) in test [3]; < 2 µg/mL in test [4]; 16 to 64 µg/mL (≈ 36.8 to 147 µM) in test [6]. The MIC in test [7] is 16 to 64 µg/mL (≈ 36.8 to 147 µM). For the same compound, the “MIC APAE006 + PMBN” value in test [5] is “A (MIC's of 2.0 μg/mL or less = A)”.
Turning to `C[C@@H](NCC(=O)NC[C@H](NC(=O)c1ccc(C#Cc2ccccc2)cc1)C(=O)NO)c1ccccc1` [Example 132-3], the MIC in test [1] (setting [8]) was < 2 µg/mL; in test [1] (setting [9]), 2 to 16 µg/mL (≈ 4.13 to 33 µM); in test [2] it was < 2 µg/mL; in test [3], 16 to 64 µg/mL (≈ 33 to 132 µM); in test [4], < 2 µg/mL; in test [6] it was 2 to 16 µg/mL (≈ 4.13 to 33 µM). The MIC in test [7] was 16 to 64 µg/mL (≈ 33 to 132 µM). For the same compound, in test [5], the “MIC APAE006 + PMBN” value was “A (MIC's of 2.0 μg/mL or less = A)”.
For `C[C@@H](NCC(=O)N[C@H](C)[C@H](NC(=O)c1ccc(C#Cc2ccccc2)cc1)C(=O)NO)c1ccccc1` [Example 132-6], the MIC in test [1] (setting [8]) is 2 to 16 µg/mL (≈ 4.01 to 32.1 µM); in test [1] (setting [9]), 16 to 64 µg/mL (≈ 32.1 to 128 µM); in test [2] it was < 2 µg/mL; in test [3], 16 to 64 µg/mL (≈ 32.1 to 128 µM); in test [4] it was < 2 µg/mL; in test [6], 16 to 64 µg/mL (≈ 32.1 to 128 µM). For the same compound, in test [7], the MIC fell in the range of 16 to 64 µg/mL (≈ 32.1 to 128 µM). The “MIC APAE006 + PMBN” value in test [5] is given as “A (MIC's of 2.0 μg/mL or less = A)”.
Take `CC(C)(N)[C@H](NC(=O)c1ccc(C#Cc2ccccc2)cc1)C(=O)NO` [Example 133-6]: the MIC in test [1] (setting [8]), in test [1] (setting [9]), in test [2], in test [3], in test [4] and in test [6] was < 2 µg/mL throughout. For the same compound, the MIC in test [7] lay within 2 to 16 µg/mL (≈ 5.69 to 45.5 µM). In test [1] (MIC of paired compound with A = —CHCH3NH2 divided by MIC of compound with A = —C(CH3)2NH2, n=2 data, pairs identical except for the A moiety), the “Ratio of MICs on AECO001 [Cpd (A = —CHCH3NH2)/Cpd (A = —C(CH3)2NH2)]” value was 20.8. The “MIC APAE006 + PMBN” value in test [5] is reported as “A (MIC's of 2.0 μg/mL or less = A)”.
In the case of `C[C@@H](O)[C@H](NC(=O)c1ccc(C#Cc2ccncc2)cc1)C(=O)NO` [Example 133-13], the MIC is 16 to 64 µg/mL (≈ 47.1 to 189 µM) in test [1] (setting [8]); 16 to 64 µg/mL (≈ 47.1 to 189 µM) in test [1] (setting [9]); 2 to 16 µg/mL (≈ 5.89 to 47.1 µM) in test [2]; 16 to 64 µg/mL (≈ 47.1 to 189 µM) in test [3]; < 2 µg/mL in test [4]; 16 to 64 µg/mL (≈ 47.1 to 189 µM) in test [6]. Moreover, the MIC in test [7] is 16 to 64 µg/mL (≈ 47.1 to 189 µM). Moreover, the “MIC APAE006 + PMBN” value in test [5] was “A (MIC's of 2.0 μg/mL or less = A)”.
On to `CC(C)(O)[C@H](NC(=O)c1ccc(C#Cc2ccccc2)cc1)C(=O)NO` [Example 133-14], for which the MIC is < 2 µg/mL in test [1] (setting [8]); < 2 µg/mL in test [1] (setting [9]); < 2 µg/mL in test [2]; 2 to 16 µg/mL (≈ 5.68 to 45.4 µM) in test [3]; < 2 µg/mL in test [4]; < 2 µg/mL in test [6]. Moreover, in test [7], the MIC fell in the range of 16 to 64 µg/mL (≈ 45.4 to 182 µM). In test [5], the “MIC APAE006 + PMBN” value is “A (MIC's of 2.0 μg/mL or less = A)”.
Take `CC(C)(O)[C@H](NC(=O)c1ccc(C#Cc2ccncc2)cc1)C(=O)NO` [Example 133-15]: the MIC in test [1] (setting [8]) is 2 to 16 µg/mL (≈ 5.66 to 45.3 µM); in test [1] (setting [9]), 2 to 16 µg/mL (≈ 5.66 to 45.3 µM); in test [2] it was < 2 µg/mL; in test [3], 2 to 16 µg/mL (≈ 5.66 to 45.3 µM); in test [4], < 2 µg/mL; in test [6] it was 2 to 16 µg/mL (≈ 5.66 to 45.3 µM). The MIC in test [7] was 16 to 64 µg/mL (≈ 45.3 to 181 µM). For the same compound, the “MIC APAE006 + PMBN” value in test [5] is given as “A (MIC's of 2.0 μg/mL or less = A)”.
Take `CC(C)(N)[C@H](NC(=O)c1ccc(C#CC2CC2c2ccccc2)cc1)C(=O)NO` (stereo partly drawn) [Example 134-1, N—((S)-2-Amino-1-hydroxycarbamoyl-2-methyl-propyl)-4-(2-phenyl-cyclopropylethynyl)-benzamide]: the MIC was 2 to 16 µg/mL (≈ 5.11 to 40.9 µM) in test [1] (setting [8]); 2 to 16 µg/mL (≈ 5.11 to 40.9 µM) in test [1] (setting [9]); < 2 µg/mL in test [2]; 2 to 16 µg/mL (≈ 5.11 to 40.9 µM) in test [3]; < 2 µg/mL in test [4]; < 2 µg/mL in test [6]. Besides, the MIC in test [7] is 16 to 64 µg/mL (≈ 40.9 to 163 µM). Besides, in test [5], the “MIC APAE006 + PMBN” value is on record as “A (MIC's of 2.0 μg/mL or less = A)”.
`C[C@@H](N)[C@H](NC(=O)c1ccc(C#CC2CC2c2ccccc2)cc1)C(=O)NO` (stereo partly shown) [Example 134-2]: the MIC is 2 to 16 µg/mL (≈ 5.3 to 42.4 µM) in test [1] (setting [8]); 16 to 64 µg/mL (≈ 42.4 to 170 µM) in test [1] (setting [9]); 2 to 16 µg/mL (≈ 5.3 to 42.4 µM) in test [2]; 2 to 16 µg/mL (≈ 5.3 to 42.4 µM) in test [3]; < 2 µg/mL in test [4]; 2 to 16 µg/mL (≈ 5.3 to 42.4 µM) in test [6]. Moreover, the MIC in test [7] lay within 16 to 64 µg/mL (≈ 42.4 to 170 µM). The “MIC APAE006 + PMBN” value in test [5] is given as “A (MIC's of 2.0 μg/mL or less = A)”.
